Here are results for two molecules from patent publication US20220340916A1, “METHODS FOR TRANSFORMING WHEAT EXPLANTS AND COMPOSITIONS THEREFOR” (MONSANTO TECHNOLOGY LLC, priority 2013, published 2022).

The structures appear in SMILES notation.

Take `O=C(NO)c1ccccc1O` [SHAM, salicylhydroxamic acid]: in the series with wheat WDSDEs, the “effect of soaking WDSDEs on oxygen consumption” value is “No effect” and the “effect on oxygen consumption when added to the reaction chamber during an oxygen measurement” value was “Very little effect”.

Take `CCO` [ethanol]: the “effect of ethanol exposure on intact seed germination on media” value with wheat seed (70% ethanol, FIG. 2) is listed as “time-dependent effect”. Besides, in the series on wheat seed (sanitization treatments involving ethanol, FIG. 1), the “germination of intact seeds as measured by root and shoot development on media” value is listed as “reduced germination”. Besides, the “viability of WDSDEs produced from treated seed” value in the series on WDSDEs is “acceptable”. In addition, in the series with WDSDEs (seed sanitization, 10% Clorox bleach, ethanol used cold (~0° C.)), the “cleanliness of WDSDEs excised from treated seed” value was “less efficient”.
